This note sets out measurements from US8697739B2, “Bicyclic acetyl-CoA carboxylase inhibitors and uses thereof” (Novartis AG, priority 2010, dated 2014).

A value given as a limit tells only on which side of the number the result lay.

As a reminder, the IC50 is the concentration that inhibits the measured activity by half.

T1 sequence (O00763 144-2458): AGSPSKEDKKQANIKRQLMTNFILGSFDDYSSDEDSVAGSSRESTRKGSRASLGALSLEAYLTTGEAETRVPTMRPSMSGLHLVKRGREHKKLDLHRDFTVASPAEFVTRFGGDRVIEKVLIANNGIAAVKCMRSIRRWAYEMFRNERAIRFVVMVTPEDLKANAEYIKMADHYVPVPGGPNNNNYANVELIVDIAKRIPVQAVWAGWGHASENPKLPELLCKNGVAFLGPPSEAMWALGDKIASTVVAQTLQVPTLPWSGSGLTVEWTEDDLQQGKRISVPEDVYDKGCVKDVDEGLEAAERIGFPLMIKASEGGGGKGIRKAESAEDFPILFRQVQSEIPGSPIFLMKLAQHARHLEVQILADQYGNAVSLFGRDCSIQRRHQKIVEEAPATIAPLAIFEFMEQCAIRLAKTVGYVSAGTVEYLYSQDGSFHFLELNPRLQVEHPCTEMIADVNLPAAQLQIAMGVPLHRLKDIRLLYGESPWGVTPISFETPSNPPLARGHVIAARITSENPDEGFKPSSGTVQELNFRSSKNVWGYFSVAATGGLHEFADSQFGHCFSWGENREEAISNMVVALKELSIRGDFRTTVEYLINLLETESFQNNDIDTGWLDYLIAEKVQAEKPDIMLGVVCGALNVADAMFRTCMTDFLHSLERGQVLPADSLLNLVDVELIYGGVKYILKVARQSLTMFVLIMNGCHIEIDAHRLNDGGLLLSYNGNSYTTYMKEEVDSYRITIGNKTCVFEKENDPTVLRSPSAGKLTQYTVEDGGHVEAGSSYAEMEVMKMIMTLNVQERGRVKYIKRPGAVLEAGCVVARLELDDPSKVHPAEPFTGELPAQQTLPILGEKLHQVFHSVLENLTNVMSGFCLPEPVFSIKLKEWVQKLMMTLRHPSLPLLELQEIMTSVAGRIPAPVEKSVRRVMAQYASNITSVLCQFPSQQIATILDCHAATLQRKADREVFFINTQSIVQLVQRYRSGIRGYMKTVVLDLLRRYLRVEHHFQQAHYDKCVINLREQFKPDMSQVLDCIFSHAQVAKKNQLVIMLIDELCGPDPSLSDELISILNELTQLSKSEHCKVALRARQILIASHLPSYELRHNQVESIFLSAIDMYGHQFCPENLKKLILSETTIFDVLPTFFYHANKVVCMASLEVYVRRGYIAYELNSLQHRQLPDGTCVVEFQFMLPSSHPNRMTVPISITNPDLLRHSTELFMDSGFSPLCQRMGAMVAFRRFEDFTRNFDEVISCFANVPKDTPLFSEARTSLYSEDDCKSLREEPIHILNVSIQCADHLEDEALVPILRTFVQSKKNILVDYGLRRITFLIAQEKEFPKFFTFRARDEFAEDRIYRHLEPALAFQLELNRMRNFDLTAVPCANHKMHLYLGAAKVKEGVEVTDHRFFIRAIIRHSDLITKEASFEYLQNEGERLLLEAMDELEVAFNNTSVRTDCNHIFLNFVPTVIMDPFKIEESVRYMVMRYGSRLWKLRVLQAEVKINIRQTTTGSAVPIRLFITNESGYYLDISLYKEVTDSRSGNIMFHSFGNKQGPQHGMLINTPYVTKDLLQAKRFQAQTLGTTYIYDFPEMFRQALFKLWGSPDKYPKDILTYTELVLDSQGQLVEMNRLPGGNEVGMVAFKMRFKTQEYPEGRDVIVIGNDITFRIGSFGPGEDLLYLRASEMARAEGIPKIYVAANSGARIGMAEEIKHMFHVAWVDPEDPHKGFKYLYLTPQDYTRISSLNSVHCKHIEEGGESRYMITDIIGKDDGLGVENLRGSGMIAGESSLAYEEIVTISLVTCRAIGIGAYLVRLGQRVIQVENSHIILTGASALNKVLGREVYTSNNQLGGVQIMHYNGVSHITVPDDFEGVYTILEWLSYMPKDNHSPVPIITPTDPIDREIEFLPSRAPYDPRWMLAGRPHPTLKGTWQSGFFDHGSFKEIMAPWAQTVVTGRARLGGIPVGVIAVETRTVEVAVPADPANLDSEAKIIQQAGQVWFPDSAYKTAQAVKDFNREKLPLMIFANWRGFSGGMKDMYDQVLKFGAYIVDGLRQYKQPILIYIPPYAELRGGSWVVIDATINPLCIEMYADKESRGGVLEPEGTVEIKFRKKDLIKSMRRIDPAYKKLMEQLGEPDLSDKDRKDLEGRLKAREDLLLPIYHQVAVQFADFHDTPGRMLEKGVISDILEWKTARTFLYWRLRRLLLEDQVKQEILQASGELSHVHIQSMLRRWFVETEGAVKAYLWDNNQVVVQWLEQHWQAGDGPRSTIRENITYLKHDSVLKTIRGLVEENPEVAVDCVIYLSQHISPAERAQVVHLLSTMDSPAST

The experiment has as its target T1, human acetyl-CoA carboxylase 2 (ACC2) (Homo sapiens, UniProt O00763).
T1 construct: The cDNA encoding amino acids 144 to 2458 of human acetyl-CoA carboxylase 2; made in house; host or cells: Sf9 insect cells (baculovirus, pFastBac1)
Kind of experiment: Acetyl-CoA carboxylase enzyme assay (malonyl-CoA formation by LC/MS/MS). The format is biochemical. Conditions: recombinant human ACC2 (aa 144-2458); read-out: IC50 ACC2. The essentials: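 Malonyl-CoA formation was read by LC/MS/MS MRM against a [13C3]-malonyl-CoA internal standard, after acetic acid quench. The enzyme was baculovirus/Sf9-expressed human ACC2 residues 144–2458, given 15 minutes room-temperature compound preincubation in HEPES pH 7.5 buffer with MgCl2, citrate and DTT. Substrate solution held 50 μM acetyl-CoA, 120 μM ATP and 2 mM KHCO3.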
In the case of `CCN(C)C(=O)[C@H]1CC[C@H](NS(=O)(=O)c2ccc3c(Cl)c(-c4ccc(CCC(=O)OC)cc4)n(C)c3c2)CC1` [Example 367, methyl 3-(4-(3-chloro-6-(N-((1r,4r)-4-(ethyl(methyl)carbamoyl)cyclohexyl)sulfamoyl)-1-methyl-1H-indol-2-yl)phenyl)propanoate], the IC50 turned out to be 30 nM.
As for `C[C@@H](NC(=O)[C@H]1CC[C@H](NS(=O)(=O)c2ccc3nc(OC4CCC4)ccc3c2)CC1)c1ccc(F)cc1` [Example 51, (1r,4R)-4-(2-cyclobutoxyquinoline-6-sulfonamido)-N-((R)-1-(4-fluorophenyl)ethyl)cyclohexanecarboxamide], the IC50 came to 101 nM.
As for `CC(C)OC(=O)c1ccc(NS(=O)(=O)c2ccc3nc(-c4ccc(O)cc4)[nH]c3c2)cc1` [Example 503, isopropyl 4-(2-(4-hydroxyphenyl)-1H-benzo[d]imidazole-6-sulfonamido)benzoate], the IC50 was 819 nM.
As for `CC(NC(=O)[C@H]1CC[C@H](NS(=O)(=O)c2ccc3cc(Cl)ccc3c2)CC1)c1cccnc1` (some centres unmarked) [Example 681, (1r,4r)-4-(6-chloronaphthalene-2-sulfonamido)-N-(1-(pyridin-3-yl)ethyl)cyclohexanecarboxamide], the IC50 was found to be 142 nM.
Next, `CCN(C)C(=O)[C@H]1CC[C@H](NS(=O)(=O)c2ccc3c(Cl)c(-c4ccc(CCC(=O)O)cc4)n(C)c3c2)CC1` [Example 366, 3-(4-(3-chloro-6-(N-((1r,4r)-4-(ethyl(methyl)carbamoyl)cyclohexyl)sulfamoyl)-1-methyl-1H-indol-2-yl)phenyl)propanoic acid]: 15 nM.
In the case of `COC(=O)CCc1ccc(-c2cc3ccc(S(=O)(=O)N[C@H]4CC[C@H](C(=O)N5CCCCC5)CC4)cc3n2C)cc1` [Example 357, methyl 3-(4-(1-methyl-6-(N-((1r,4r)-4-(piperidine-1-carbonyl)cyclohexyl)sulfamoyl)-1H-indol-2-yl)phenyl)propanoate], the concentration for half-maximal inhibition (IC50) turned out to be 120 nM.
In the case of `C[C@@H]1CN(C(=O)[C@H]2CC[C@H](NS(=O)(=O)c3ccc4cc(-c5ccccc5)n(C)c4c3)CC2)C[C@H](C)O1` [Example 419, N-((1R,4r)-4-((2S,6R)-2,6-dimethylmorpholine-4-carbonyl)cyclohexyl)-1-methyl-2-phenyl-1H-indole-6-sulfonamide], the IC50 came to 35 nM.
In the case of `Cn1c(-c2ccccc2)cc2ccc(S(=O)(=O)N[C@H]3CC[C@H](C(=O)N4CCN[C@H](C(F)(F)F)C4)CC3)cc21` [Example 331, 1-methyl-2-phenyl-N-((1S,4r)-4-((S)-3-(trifluoromethyl)piperazine-1-carbonyl)cyclohexyl)-1H-indole-6-sulfonamide], the IC50 amounted to 25 nM.
Turning to `Cn1c(C2CC2)cc2ccc(S(=O)(=O)N[C@H]3CC[C@](C)(C(=O)N4CCOCC4)CC3)cc21` [Example 24, 2-cyclopropyl-1-methyl-N-((1r,4r)-4-methyl-4-(morpholine-4-carbonyl)cyclohexyl)-1H-indole-6-sulfonamide], the IC50 was 230 nM.
With `Cc1ccccc1-c1nc2cc(S(=O)(=O)N[C@H]3CC[C@H](C(=O)N[C@H](C)c4ccc(F)cc4)CC3)cnc2s1` [Example 75, (1r,4R)-N-((R)-1-(4-fluorophenyl)ethyl)-4-(2-o-tolylthiazolo[5,4-b]pyridine-6-sulfonamido)cyclohexanecarboxamide], the IC50 was found to be 95 nM.
Next, `O=C(NCC1CCCCC1)[C@H]1CC[C@H](NS(=O)(=O)c2ccc3[nH]c(-c4ccccc4)nc3c2)CC1` [Example 639, (1r,4r)-N-(cyclohexylmethyl)-4-(2-phenyl-1H-benzo[d]imidazole-5-sulfonamido)cyclohexanecarboxamide]: 352 nM.
As for `COCCc1ccc(-c2cc3ccc(S(=O)(=O)N[C@H]4CC[C@H](C(=O)N5CCOC[C@@H]5C5CC5)CC4)cc3n2C)cc1` [Example 457, N-((1S,4r)-4-((S)-3-cyclopropylmorpholine-4-carbonyl)cyclohexyl)-2-(4-(2-methoxyethyl)phenyl)-1-methyl-1H-indole-6-sulfonamide], the IC50 is under 10 nM.
For `C[C@@H](NC(=O)[C@H]1CC[C@H](NS(=O)(=O)c2ccc3nc(-c4ccccn4)ccc3c2)CC1)c1ccc(F)cc1` [Example 230, (1r,4R)-N-((R)-1-(4-fluorophenyl)ethyl)-4-(2-(pyridin-2-yl)quinoline-6-sulfonamido)cyclohexanecarboxamide], the IC50 was determined as 60 nM.
On to `C[C@@H](NC(=O)[C@H]1CC[C@H](NS(=O)(=O)c2ccc3c(c2)CCC(=O)N3)CC1)c1ccc(F)cc1` [Example 110, (1r,4R)-N-((R)-1-(4-fluorophenyl)ethyl)-4-(2-oxo-1,2,3,4-tetrahydroquinoline-6-sulfonamido)cyclohexanecarboxamide], for which the IC50 came out at 290 nM.
In the case of `COC(=O)c1ccc(-c2cc3ccc(S(=O)(=O)N[C@H]4CC[C@H](C(=O)N[C@H](C)c5ccc(F)cc5)CC4)cc3[nH]2)c(C)c1` [Example 300], the IC50 turned out to be 10 nM.
Consider `CC(C)(O)C1CCCN(C(=O)[C@H]2CC[C@H](NS(=O)(=O)c3ccc4c(Cl)c(-c5ccccc5)[nH]c4c3)CC2)C1` (some centres unmarked) [Example 383, 3-chloro-N-((1r,4r)-4-(3-(2-hydroxypropan-2-yl)piperidine-1-carbonyl)cyclohexyl)-2-phenyl-1H-indole-6-sulfonamide], for which the IC50 is under 10 nM.
Consider `COC[C@H]1CCCN1C(=O)[C@H]1CC[C@H](NS(=O)(=O)c2ccc3cc(-c4ccccc4)n(C)c3c2)CC1` [Example 408, N-((1R,4r)-4-((R)-2-(methoxymethyl)pyrrolidine-1-carbonyl)cyclohexyl)-1-methyl-2-phenyl-1H-indole-6-sulfonamide], for which the IC50 worked out at 20 nM.
Regarding `Cn1c(-c2ccccc2)cc2cc(S(=O)(=O)N[C@H]3CC[C@H](C(=O)N4CC(C(=O)O)CCC4c4ccccc4)CC3)ccc21` (some centres unmarked) [Example 91, 1-((1r,4r)-4-(1-methyl-2-phenyl-1H-indole-5-sulfonamido)cyclohexanecarbonyl)-6-phenylpiperidine-3-carboxylic acid], the IC50 was determined as 30 nM.
On to `CC1COCCN1C(=O)[C@H]1CC[C@H](NS(=O)(=O)c2ccc3c(C#N)c(C4CC4)n(C)c3c2)CC1` (some centres unmarked) [Example 401, 3-cyano-2-cyclopropyl-1-methyl-N-((1r,4r)-4-(3-methylmorpholine-4-carbonyl)cyclohexyl)-1H-indole-6-sulfonamide], for which the IC50 is 25 nM.
For `CC(=O)c1cccc(Nc2nc3cc(S(=O)(=O)Nc4ccc(C(=O)OC(C)C)cc4)ccc3[nH]2)c1` [Example 541, isopropyl 4-(2-(3-acetylphenylamino)-1H-benzo[d]imidazole-5-sulfonamido)benzoate], the IC50 came to 86 nM.
Consider `Cc1ccccc1-c1cc2ccc(S(=O)(=O)N[C@H]3CC[C@H](C(=O)N4CCNC(C(F)(F)F)C4)CC3)cc2[nH]1` (some centres unmarked) [Example 320, 2-o-tolyl-N-((1r,4r)-4-(3-(trifluoromethyl)piperazine-1-carbonyl)cyclohexyl)-1H-indole-6-sulfonamide], for which the IC50 amounted to 85 nM.
The value for `CCOc1ccc2cc(S(=O)(=O)N[C@H]3CC[C@H](C(=O)N4CCNCC4c4ccccc4)CC3)ccc2n1` (some centres unmarked) [Example 204, 2-ethoxy-N-((1r,4r)-4-(2-phenylpiperazine-1-carbonyl)cyclohexyl)quinoline-6-sulfonamide] was 80 nM.
Take `COC(=O)CCc1ccc(-c2cc3ccc(S(=O)(=O)N[C@H]4CC[C@H](C(=O)N5CCCC5c5ccc(F)cc5)CC4)cc3n2C)cc1` (some centres unmarked) [Example 386, methyl 3-(4-(6-(N-((1r,4r)-4-(2-(4-fluorophenyl)pyrrolidine-1-carbonyl)cyclohexyl)sulfamoyl)-1-methyl-1H-indol-2-yl)phenyl)propanoate]: the IC50 was determined as 25 nM.
The value for `Cc1c(Cl)[nH]c2ccc(S(=O)(=O)N[C@H]3CC[C@H](C(=O)N[C@H](C)c4ccc(F)cc4)CC3)cc12` [Example 124, (1r,4R)-4-(2-chloro-3-methyl-1H-indole-5-sulfonamido)-N-((R)-1-(4-fluorophenyl)ethyl)cyclohexanecarboxamide] was 32 nM; that for `CC(C)OC(=O)c1ccc(NS(=O)(=O)c2ccc3[nH]c(Nc4ccc(N(C)C)cc4)nc3c2)cc1` [Example 551, isopropyl 4-(2-(4-(dimethylamino)phenylamino)-1H-benzo[d]imidazole-5-sulfonamido)benzoate] was 282 nM.
As for `O=C(Nc1cccc2ccccc12)[C@H]1CC[C@H](NS(=O)(=O)c2ccc3[nH]c(-c4ccccc4)nc3c2)CC1` [Example 645, (1r,4r)-N-(naphthalen-1-yl)-4-(2-phenyl-1H-benzo[d]imidazole-5-sulfonamido)cyclohexanecarboxamide], the IC50 turned out to be 1060 nM.
As to `CC(C)OC(=O)c1ccc(NS(=O)(=O)c2ccc3[nH]c(Nc4ccccc4F)nc3c2)cc1` [Example 546, isopropyl 4-(2-(2-fluorophenylamino)-1H-benzo[d]imidazole-5-sulfonamido)benzoate], the IC50 was 845 nM.
On to `CC(C)N(C)C(=O)[C@H]1CC[C@H](NS(=O)(=O)c2ccc3[nH]c(-c4ccc(N5CCN(C)CC5)cc4)nc3c2)CC1` [Example 564, (1r,4r)-N-isopropyl-N-methyl-4-(2-(4-(4-methylpiperazin-1-yl)phenyl)-1H-benzo[d]imidazole-5-sulfonamido)cyclohexanecarboxamide], for which the IC50 stood at 27 nM.
`Cn1cc(C#N)c2cc(S(=O)(=O)N[C@H]3CC[C@H](C(=O)N[C@@H](c4ccccc4)C(C)(C)O)CC3)ccc21` [Example 89, (1r,4S)-4-(3-cyano-1-methyl-1H-indole-5-sulfonamido)-N-((S)-2-hydroxy-2-methyl-1-phenylpropyl)cyclohexanecarboxamide]: the IC50 is 20 nM.
